Experiments:
Type in all cases: cell-based, human
DLD-1 cells [1] = assay: Soft agar colony formation assay; details: 1 μM, 7 days
Experimental: (§1) Analysis of anchorage-independent cell proliferation was achieved by soft agar colony formation assay. A bottom layer containing 0.5% w/v agarose, RPMI-1640 medium, 10% FBS and 1 μM niclosamide or the respective amount of DMSO was added to a 6 cm Ø dish and incubated at room temperature under sterile conditions for 10 minutes. Onto the solidified bottom layer a top layer was added containing 8×10^3 cells, 0.33% w/v agarose, RPMI-1640 medium, 10% FBS and 1 μM niclosamide or the respective amount of DMSO. Cells were seeded as single cells into the soft agar and incubated in a humidified incubator at 37° C. and 5% CO2 for 7 days. Colony formation was visualized by 10× magnification for an overview and 40× magnification for single colonies in the Leica DM IL light microscope (Leica Microsystems). Colony quantification was achieved by counting cell colonies of more than 4 cells in 10 squares of […]. Colony formation experiments were repeated twice, each in triplicates.
(§2) (A) S100A4 expression under niclosamide treatment. Cells were treated with 1 μM niclosamide for 24 hours. S100A4 expression was analyzed with qRT-PCR and immunoblot. (B) Cell migration under niclosamide treatment. Migration rates of cells treated with 1 μM niclosamide for 24 hours were determined in a Boyden chamber assay values were normalized to solvent-treated SW620 cells. (C) Cell invasion under niclosamide treatment. Cells were seeded onto Matrigel covered transwells and treated with 1 μM niclosamide for 24 hours. Invaded cells in the lower chamber were counted and normalized to solvent-treated SW620 cells. Differences in solvent vs. niclosamide-treated cells were analyzed by Student's t test. Data represent mean±SE of at least two independent experiments each performed in triplicate. (D) Directed migration under niclosamide treatment. Wounds of 300 μM width were set in a 60% confluent monolayer of cells on day 1. Cells were treated daily with 1 μM niclosamide for 4 days. Microphotographs of day 4 are presented here with black lines indicating margins of the wound on day 1; scale bar represents 200 μM. Directed migration data shown are representatives of three independent experiments. (E) Adhesive cell proliferation under niclosamide treatment. Cells were treated daily with 1 μM niclosamide. The amount of viable cells per well was determined by MTT assay. (F) Anchorage-independent cell growth under niclosamide treatment. Cells were plated as single cells into 0.33% (w/v) agarose and treatment (solvent or 1 μM niclosamide) containing medium. After 7 days colonies were visualized by light microscopy at 10× (overview) and 40× (single colony) magnification. (G) Quantification of colonies formed. Number of colonies (of more than 4 cells) was counted and normalized to solvent-treated SW620 cells. Differences in solvent vs. niclosamide-treated cells were analyzed by Student's t test. Data represent mean mean±SE of at least two independent experiments each performed in duplicates.

SW480 cells [2] = assay: Soft agar colony formation assay; details: 1 μM, 7 days
Experimental: as §1, §2

LS174T cells [3] = assay: Soft agar colony formation assay; details: 1 μM, 7 days
Experimental: as §1, §2

SW620 cells [4] = assay: Soft agar colony formation assay; details: 1 μM, 7 days
Experimental: as §1, §2

DLD-1 cells [5] = assay: Boyden chamber transwell migration assay; details: 1 μM, 24 h
Experimental: (§3) HCT116, SW620, LS174T, SW480 and DLD-1 cells were used in cell migration and invasion analysis performed with Boyden chamber assay. 400 μL containing 2.5×10^5 cells were seeded into each transwell chamber with filter membranes of 12.0 μm pore size (Millipore, Schwalbach, Germany). For invasion filter membranes were coated with 50 μL Matrigel (diluted 1:3 in RPMI-1640; BD Biosciences) 10 minutes before cells were seeded. Fresh medium (600 μL) were added to the bottom chamber and cells were allowed to attach to the insets for 15 hours. Both chambers were treated with 1 μM niclosamide or the respective amount of DMSO and incubated at 37° C. and 5% CO2 in a humidified incubator for 24 hours. Afterwards insets were removed and cells that had migrated through the membrane to the lower chamber were trypsinized and counted in a Neubauer chamber (LO-Laboroptik, Bad Homburg, Germany). Each well was counted ten times. Each migration or invasion experiment was performed in duplicate. The average number of migrated or invaded cells was determined for at least three independent experiments.
as §2

SW480 cells [6] = assay: Boyden chamber transwell migration assay; details: 1 μM, 24 h
Experimental: as §3, §2

LS174T cells [7] = assay: Boyden chamber transwell migration assay; details: 1 μM, 24 h
Experimental: as §3, §2

SW620 cells [8] = assay: Boyden chamber transwell migration assay; details: 1 μM, 24 h
Experimental: as §3, §2

Structure (SMILES): O=C(Nc1ccc([N+](=O)[O-])cc1Cl)c1cc(Cl)ccc1O [niclosamide, 2′,5-dichloro-4′-nitrosalicylanilide]
- anchorage-independent growth, colony size (DLD-1 cells [1]): clearly smaller cell colonies
- number of colonies, mean difference control vs niclosamide (DLD-1 cells [1]): 72.5%
- number of colonies, mean % (normalized to solvent-treated SW620 cells) (DLD-1 cells [1]; solvent control 82.6%): 10.1%
- anchorage-independent growth, colony size (SW480 cells [2]): clearly smaller cell colonies
- number of colonies, mean difference control vs niclosamide (SW480 cells [2]): 63.8%
- number of colonies, mean % (normalized to solvent-treated SW620 cells) (SW480 cells [2]; solvent control 68.1%): 4.3%
- anchorage-independent growth, colony size (LS174T cells [3]): clearly smaller cell colonies
- number of colonies, mean difference control vs niclosamide (LS174T cells [3]): 74.6%
- number of colonies, mean % (normalized to solvent-treated SW620 cells) (LS174T cells [3]; solvent control 90.6%): 15.9%
- anchorage-independent growth, colony size (SW620 cells [4]): clearly smaller cell colonies
- number of colonies, mean difference control vs niclosamide (SW620 cells [4]): 96.4%
- number of colonies, mean % (normalized to solvent-treated SW620 cells) (SW620 cells [4]; solvent control 100.0%): 3.6%
- cell migration rate (DLD-1 cells [5]): not further affected
- migration, mean difference control vs niclosamide (SW480 cells [6]): 11.1%
- cell migration rate, mean % (normalized to solvent-treated SW620 cells) (SW480 cells [6]; solvent control 21.7%): 10.6%
- migration, mean difference control vs niclosamide (LS174T cells [7]): 41.3%
- cell migration rate, mean % (normalized to solvent-treated SW620 cells) (LS174T cells [7]; solvent control 68.2%): 26.8%
- migration, mean difference control vs niclosamide (SW620 cells [8]): 52.1%
- cell migration rate, mean % (normalized to solvent-treated SW620 cells) (SW620 cells [8]; solvent control 100.0%): 47.9%

— patent US11331290B2, “Niclosamide for the treatment of cancer metastasis” (Max-Delbrück-Centrum für Molekulare Medizin in der …, priority 2011, dated 2022)
